Like-named read-outs stand apart in the source and are kept apart here.
How the values were obtained:
[1] = test system: rats; experiment: Conditioned avoidance response (CAR) suppression in rats; format: in vivo; details: Rattus norvegicus, read-out: Rat CAR, minimal effective dose (MED)
Protocol: N.Y. Acad. Sci. 66, 740 (1957)]. A series of experiments was carried out to assess the ability of the compounds of this invention to suppress the conditioned avoidance response (CAR) in rats.
Rats were required to jump onto a platform located 6.75 inches (17.15 cm) above the grid floor of an experimental chamber in response to a 5-second tone to avoid a 10-second foot shock (0.6 ma). Each experimental session consisted of 20 such trials presented at 30-second intervals. A correct CAR is scored whenever the rat jumps onto the platform during the tone (prior to foot shock). An escape response is scored when the rat jumps onto the platform during a shock. A response failure is defined as the lack of an escape response during the 10-second shock period.
Groups of 6-8 rats were trained in two consecutive days (total of 40 trials). Rats that reached criterion on day 2 (correct CARs in 16 or more of the 20 trials) were treated with either a test drug or a vehicle on day 3. Suppression of CAR was analyzed statistically using Student's t-test comparing the performances of drug-treated to vehicle-treated rats.

[2] = test system: rat; experiment: Toxicity, rat; format: in vivo; details: for Toxicity, rat: result in words, dose in mpk within the value
Excerpt: The compounds of this invention are substantially non-toxic at the therapeutic close, as is shown in the following Table 4, which compares them with related reference compounds: […]

[3] = target: T1, D-2 receptor (Rattus norvegicus, UniProt P61169); experiment: Competitive inhibition assay, 3H-spiperone binding to rat striatal tissue (D-2); parameters: species or system Male Sprague-Dawley rats; details: rat striatal homogenate, 0.2 nM 3H-spiperone, pH 7.4, 37° C., 15 minutes, read-out: Ki against 3H-spiperone
T1 construct: Striatal tissue was excised, pooled, and homogenized; from tissue; host or cells: rat striatum (Sprague-Dawley), washed membrane homogenate
T1 sequence (P61169 whole entry): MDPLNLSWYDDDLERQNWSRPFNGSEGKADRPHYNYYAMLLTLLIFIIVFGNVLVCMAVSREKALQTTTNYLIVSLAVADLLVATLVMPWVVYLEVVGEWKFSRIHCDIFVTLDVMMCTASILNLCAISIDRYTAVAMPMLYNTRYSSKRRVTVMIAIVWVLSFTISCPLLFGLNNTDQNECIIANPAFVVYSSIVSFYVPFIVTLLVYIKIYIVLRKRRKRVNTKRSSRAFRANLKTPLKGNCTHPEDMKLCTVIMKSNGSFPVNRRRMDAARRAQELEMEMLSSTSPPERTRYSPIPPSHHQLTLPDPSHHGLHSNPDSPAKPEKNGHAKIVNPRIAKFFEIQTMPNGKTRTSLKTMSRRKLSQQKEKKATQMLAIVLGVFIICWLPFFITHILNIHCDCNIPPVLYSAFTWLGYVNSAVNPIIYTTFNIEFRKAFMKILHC
Excerpt: (§1) Many compounds capable of effecting reproducible physiological changes in neural tissues are believed to operate by binding at one or more receptor sites.
(§2) A methodology for characterization of binding and an interpretation of the data are described by Billard et al., Life Sciences 35, 1885 (1984) in which the binding of (R)-(+)-7-chloro-8-hydroxy-3-methyl-1-phenyl-2,3,4,5-tetrahydro-1H-3-benzazepine (SCH 23390) (as its hemi-maleate) to the dopamine D-1 receptor is characterized.
(§3) Tritiated SCH 23390 and tritiated spiperone (a potent D-2 ligand) were obtained as described in the Billard et al. reference supra and serially diluted in 0.05 M Tris buffer, pH 7.4, as required. A compound of the invention was diluted in 0.05 M Tris buffer, pH 7.4, as required.
(§4) Male Sprague-Dawley rats (200 to 250 g) from Charles River Breeding Laboratories, Mass., were used to obtain brain tissue. The rats were humanely sacrificed and their brains removed and placed on ice. Striatal tissue was excised, pooled, and homogenized (Brinkman Polytron, 10 sec) in 100 volumes (w/v) of ice cold 50 mM Tris buffer, pH 7.4 (at 25° C.). The homogenate was centrifuged at 20,000 x g for 10 min. The resulting pellet was re-homogenized in Tris buffer and centrifuged again. The final pellet was resuspended in 50 mM Tris buffer, pH 7.4 containing 120 mM NaCl, 5 mM KCl, 2 mM CaCl2, and 1 mM MgCl2.
(§5) Polypropylene incubation tubes received 100 μl of the individual test compounds at various concentrations dissolved or suspended in 0.05 M Tris buffer, pH 7.4 containing 4 mg/ml methylcellulose, 100 μl of a solution of ^3 H-SCH 23390 in Tris buffer (final reaction mixture concentration=0.3nM) or 100 μl of a solution of ^3 H-spiperone in Tris buffer (final concentration=0.2 nM) and 800 μl of tissue suspension (ca. 3 mg/assay). Tubes were incubated at 37° C. for 15 minutes and rapidly vacuum filtered through Whatman GF/B filters and rinsed 4 times with 4 ml of ice cold 50 mM Tris buffer, pH 7.4. The filters were transferred to scintillation vials, equilibrated with 10 ml of scintillant (Scintosol, Isolab, Inc.) for 16 hours at 25° C., and the radioactivity was determined in a liquid scintillation counter. Ki values were determined as described by Billard et al. using the relationship: K i =IC50 /(1+([…])) wherein IC50 =concentration of test drug necessary to displace 50% of specifically bound ^3 H-SCH 23390, [L]=concentration of radioligand used in the assay, and KD =dissociation constant.

[4] = target: T2, dopamine D-1 receptor (Rattus norvegicus, UniProt P18901); experiment: Competitive inhibition assay, 3H-SCH 23390 binding to rat striatal tissue (dopamine D-1); parameters: species or system Male Sprague-Dawley rats; details: rat striatal homogenate, 0.3 nM 3H-SCH 23390, pH 7.4, 37° C., 15 minutes, read-out: Ki against 3H-SCH 23390
T2 construct: Striatal tissue was excised, pooled, and homogenized; from tissue; host or cells: rat striatum (Sprague-Dawley), washed membrane homogenate
T2 sequence (P18901 whole entry): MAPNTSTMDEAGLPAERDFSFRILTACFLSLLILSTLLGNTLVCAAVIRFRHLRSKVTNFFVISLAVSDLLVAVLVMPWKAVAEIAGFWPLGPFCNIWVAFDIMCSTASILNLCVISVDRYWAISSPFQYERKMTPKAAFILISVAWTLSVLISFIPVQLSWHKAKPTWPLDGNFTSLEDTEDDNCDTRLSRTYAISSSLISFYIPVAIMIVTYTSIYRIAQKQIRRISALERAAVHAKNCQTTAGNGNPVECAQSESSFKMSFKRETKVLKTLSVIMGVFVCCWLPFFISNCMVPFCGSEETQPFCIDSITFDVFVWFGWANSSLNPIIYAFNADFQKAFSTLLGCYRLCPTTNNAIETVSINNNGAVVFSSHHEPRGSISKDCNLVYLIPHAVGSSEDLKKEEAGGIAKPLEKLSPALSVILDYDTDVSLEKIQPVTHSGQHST
Excerpt: as §1, §2, §3, §4, §5

[5] = test system: squirrel monkeys; experiment: Suppression of conditioned avoidance response (CAR) in squirrel monkeys; format: in vivo; details: Saimiri, in Primates, po, read-out: Monkey CAR, minimal effective dose (MED)
Excerpt: This test is designed to measure the effective duration of candidate compounds.
Male or female squirrel monkeys weighing 800-1200 g housed one per cage are utilized. Initially each monkey is taught to terminate both a 3mA electric shock delivered through the grid floor of the test cage and an overlapping tone by depressing a lever in the cage.
In the second phase of the testing, a ten second tone is turned on prior to the shock component. A lever pass during the sounding of the tone terminates the tone and prevents the occurrence of the shock component and is denoted as an "avoidance".
The compound testing is commenced after three consecutive days of re-testing. […] The monkey must achieve at lest an 85% correct avoidance before drug testing commences. If this minimal avoidance level is achieved, the next day the monkey is orally dosed or injected with the subject compounds in the appropriate vehicle, and the number of avoidances are recorded. An animal is defined as having been "affected" by any drug treatment if there is a 50% loss of avoidance behavior relative to the performance of the animal when only the vehicle is injected. The minimal effective dose (MED) is defined as that dose producing an effect in at least 50% of the animals.
A test may be conducted to determine the effective duration of a compound in accordance with the present invention by comparing a compound of the invention to the known compound SCH 23390. A compound of the invention administered 60 minutes prior to the test is compared to SCH 23390 administered 30 minutes prior to test. The duration of each compound is determined by administering a 12.0 mg/kg p.o. dose six hours prior to testing.

| Structure (SMILES) | Ki [3] | Ki [4] | minimal effective dose ([1]; po (per oral)) | Toxicity, rat [2] | also measured |
| --- | --- | --- | --- | --- | --- |
| Cc1cc2c(cc1O)C(C1=CCCCC1)CN(C)CC2 (racemic) [A, (R,S)-1-(1-cyclohexenyl)-8-hydroxy-3,7-dimethyl-2,3,4,5-tetrahydro-1H-3-benzazepine, reference compound] | 1880 nM | 8.7 nM | > 30 mg/kg |  | Toxicity, rat: salivation ([2]; 10 mpk po, after 1 hour): salivation in 1 of 3 rats; minimal effective dose [5]: 3 mg/kg; minimal effective dose ([5]; at 1 hour): 10 mg/kg |
| CC1=C(C2CN(C)CCc3cc(Cl)c(O)cc32)CCC1 (racemic) [G, (R,S)-7-chloro-8-hydroxy-3-methyl-(2-methyl-1-cyclopentenyl)-2,3,4,5-tetrahydro-1H-3-benzazepine] | 656 nM | 0.27 nM | 10 mg/kg | Non-toxic at 300 mpk | minimal effective dose ([1]; po, at 6 hours): 50 mg/kg; minimal effective dose ([1]; sc (subcutaneous)): 0.01 mg/kg; minimal effective dose [5]: 5 mg/kg; minimal effective dose ([5]; at 6 hours): 20 mg/kg |
| Cc1cc2c(cc1O)[C@@H](C1=CCCCC1)CN(C)CC2 [C, (R)-1-(1-cyclohexenyl)-8-hydroxy-3,7-dimethyl-2,3,4,5-tetrahydro-1H-3-benzazepine, reference compound] | 1670 nM | 4 nM |  |  | minimal effective dose ([1]; sc (subcutaneous)): 0.1 mg/kg |
| CN1CCc2cc(Cl)c(O)cc2C(C2CCCC2)C1 (stereo not drawn) [D, reference compound] |  |  | > 30 mg/kg |  | minimal effective dose ([1]; sc (subcutaneous)): 3 mg/kg |
| Cc1cc2c(cc1O)C(C1CCCCC1)CN(C)CC2 (stereo not drawn) [E, reference compound] | 3610 nM | 48 nM | 10 mg/kg | Lethal at 300 mpk | minimal effective dose ([1]; sc (subcutaneous)): 3 mg/kg |
| Cc1cc2c(cc1O)C(C1CCCC1)CN(C)CC2 (stereo not drawn) [F, reference compound] | 1050 nM | 44 nM |  | Lethal at 300 mpk |  |
| CC1=C([C@H]2CN(C)CCc3cc(Cl)c(O)cc32)CCC1 [H, (R)-7-chloro-8-hydroxy-3-methyl-1-(2-methyl-1-cyclopentenyl)-2,3,4,5-tetrahydro-1H-3-benzazepine] | 358 nM | 0.43 nM | 5 mg/kg | Non-toxic at 150 mpk | minimal effective dose ([1]; po, at 6 hours): 25 mg/kg; minimal effective dose [5]: 2 mg/kg; minimal effective dose ([5]; at 4 hours): 10 mg/kg |
| CN1CCc2cc(Cl)c(O)cc2[C@@H](C2=CCCCC2)C1 [M, (R)-7-chloro-1-(1-cyclohexenyl)-8-hydroxy-3-methyl-2,3,4,5-tetrahydro-1H-3-benzazepine] | 1090 nM | 0.87 nM | 10 mg/kg | Secretions at 300 mpk |  |

More lines, main results first:

| Ki [3] | Ki [4] | Structure (SMILES) | minimal effective dose ([1]; po (per oral)) | Toxicity, rat [2] | also measured |
| --- | --- | --- | --- | --- | --- |
| 1440 nM | 2.2 nM | CN1CCc2cc(Cl)c(O)cc2C(C2=CCCCC2)C1 (racemic) [K, (R,S)-7-chloro-1-(1-cyclohexenyl)-8-hydroxy-3-methyl-2,3,4,5-tetrahydro-1H-3-benzazepine] |  |  |  |
| 420 nM | 0.83 nM | CC1=C(C2CN(C)CCc3cc(Cl)c(O)cc32)CCCC1 (racemic) [N, (R,S)-7-chloro-8-hydroxy-3-methyl-1-(2-methyl-1-cyclohexenyl)-2,3,4,5-tetrahydro-1H-3-benzazepine] | 30 mg/kg |  |  |
| 595 nM | 2.3 nM | CN1CCc2cc(Cl)c(O)cc2C(C2=CCCC2)C1 (racemic) [Q, (R,S)-7-chloro-1-(1-cyclopentenyl)-8-hydroxy-3-methyl-2,3,4,5-tetrahydro-1H-3-benzazepine] |  |  |  |
| 4370 nM | 101 nM | Cc1cc2c(cc1O)[C@H](C1=CCCCC1)CN(C)CC2 [B, (S)-1-(1-cyclohexenyl)-8-hydroxy-3,7-dimethyl-2,3,4,5-tetrahydro-1H-3-benzazepine, reference compound] | > 30 mg/kg |  |  |
| 3690 nM | 15 nM | CC1=C([C@@H]2CN(C)CCc3cc(Cl)c(O)cc32)CCC1 [J, (S)-7-chloro-8-hydroxy-3-methyl-1-(2-methyl-1-cyclopentenyl)-2,3,4,5-tetrahydro-1H-3-benzazepine] | > 30 mg/kg |  |  |
| 2080 nM | 23 nM | CN1CCc2cc(Cl)c(O)cc2[C@H](C2=CCCCC2)C1 [L, (S)-7-chloro-1-(1-cyclohexenyl)-8-hydroxy-3-methyl-2,3,4,5-tetrahydro-1H-3-benzazepine] | > 30 mg/kg |  |  |
| 554 nM | 2.8 nM | CC(C)=C(C)C1CN(C)CCc2cc(Cl)c(O)cc21 (stereo not drawn) [P] | 10 mg/kg |  |  |

— US5241065A, “2,3,4,5-tetrahydro-1H-3-benzazepines having anti-psychotic activity” (Schering Corporation, priority 1992, dated 1993)
